{"source": "ChEMBL document CHEMBL1142130", "about": "“Quinolone resistance in Helicobacter pylori isolates in Germany” (2007)", "type_in_all_cases": "functional", "key": {"Helicobacter pylori [1]": {"test_system": "Helicobacter pylori", "test": "Antimicrobial activity against ciprofloxacin-resistant Helicobacter pylori 4 containing gyrA C261G mutation by Etest method"}, "Helicobacter pylori [2]": {"test_system": "Helicobacter pylori", "test": "Antimicrobial activity against ciprofloxacin-resistant Helicobacter pylori 14 containing gyrA A272G mutation by Etest method"}, "Helicobacter pylori [3]": {"test_system": "Helicobacter pylori", "test": "Antimicrobial activity against ciprofloxacin-resistant Helicobacter pylori 12 containing gyrA G271A mutation by Etest method"}, "Helicobacter pylori [4]": {"test_system": "Helicobacter pylori", "test": "Antimicrobial activity against ciprofloxacin-resistant Helicobacter pylori 4 containing gyrA G271T mutation by Etest method"}, "Helicobacter pylori [5]": {"test_system": "Helicobacter pylori", "test": "Antimicrobial activity against ciprofloxacin-resistant Helicobacter pylori 26 containing gyrA C261A mutation by Etest method"}}, "data": [{"smiles": "O=C(O)c1cn(C2CC2)c2cc(N3CCNCC3)c(F)cc2c1=O", "note": "[CIPROFLOXACIN]", "values": [{"measurement": "MIC", "setting": "Helicobacter pylori [1]", "result": 4, "unit": "µg/mL"}, {"measurement": "MIC", "setting": "Helicobacter pylori [2]", "result": 16, "unit": "µg/mL"}, {"measurement": "MIC", "setting": "Helicobacter pylori [3]", "result": 16, "unit": "µg/mL"}, {"measurement": "MIC", "setting": "Helicobacter pylori [4]", "result": 8, "unit": "µg/mL"}, {"measurement": "MIC", "setting": "Helicobacter pylori [5]", "result": 4, "unit": "µg/mL"}]}]}
